Columns and labels:
[1] = system: dogs; details: dog, in vivo
[2] = system: mice; details: mouse, in vivo
[3] = system: humans; assay: administration to humans, adverse effects; type: in vivo, human; details: doses exceeding 15 g/m^2
[4] = accepted value; cited from earlier work
[5] = system: aldose reductase; details: humans, mainly in the 1980s; cited from earlier work

For `O=S(=O)([O-])CCSSCCS(=O)(=O)[O-].[Na+].[Na+]`, the adverse effects [1] was “no adverse effects”, the adverse effects [2] was “no adverse effects” and the adverse effects [3] was “no adverse effects”.

In the case of `[Cl-].[Na+]` [common table salt], the “oral LD50” value [4] is given as 3750 mg/kg.

In the case of `O=C1NC(=O)[C@@]2(CCOc3ccc(F)cc32)N1` [sorbinil], the “efficacy in slowing the progress of diabetic retinopathy” value [5] is listed as “some efficacy” and the tolerability in patients [5] is listed as “not well tolerated”.

From patent US6251881A, “Method of treating diabetic angiopathy” (priority 1999, dated 2001)
